How the values were obtained:
[1] = molecular target: T1, Lysine-specific demethylase 4A (Homo sapiens, UniProt O75164)
T1 sequence (O75164 whole entry): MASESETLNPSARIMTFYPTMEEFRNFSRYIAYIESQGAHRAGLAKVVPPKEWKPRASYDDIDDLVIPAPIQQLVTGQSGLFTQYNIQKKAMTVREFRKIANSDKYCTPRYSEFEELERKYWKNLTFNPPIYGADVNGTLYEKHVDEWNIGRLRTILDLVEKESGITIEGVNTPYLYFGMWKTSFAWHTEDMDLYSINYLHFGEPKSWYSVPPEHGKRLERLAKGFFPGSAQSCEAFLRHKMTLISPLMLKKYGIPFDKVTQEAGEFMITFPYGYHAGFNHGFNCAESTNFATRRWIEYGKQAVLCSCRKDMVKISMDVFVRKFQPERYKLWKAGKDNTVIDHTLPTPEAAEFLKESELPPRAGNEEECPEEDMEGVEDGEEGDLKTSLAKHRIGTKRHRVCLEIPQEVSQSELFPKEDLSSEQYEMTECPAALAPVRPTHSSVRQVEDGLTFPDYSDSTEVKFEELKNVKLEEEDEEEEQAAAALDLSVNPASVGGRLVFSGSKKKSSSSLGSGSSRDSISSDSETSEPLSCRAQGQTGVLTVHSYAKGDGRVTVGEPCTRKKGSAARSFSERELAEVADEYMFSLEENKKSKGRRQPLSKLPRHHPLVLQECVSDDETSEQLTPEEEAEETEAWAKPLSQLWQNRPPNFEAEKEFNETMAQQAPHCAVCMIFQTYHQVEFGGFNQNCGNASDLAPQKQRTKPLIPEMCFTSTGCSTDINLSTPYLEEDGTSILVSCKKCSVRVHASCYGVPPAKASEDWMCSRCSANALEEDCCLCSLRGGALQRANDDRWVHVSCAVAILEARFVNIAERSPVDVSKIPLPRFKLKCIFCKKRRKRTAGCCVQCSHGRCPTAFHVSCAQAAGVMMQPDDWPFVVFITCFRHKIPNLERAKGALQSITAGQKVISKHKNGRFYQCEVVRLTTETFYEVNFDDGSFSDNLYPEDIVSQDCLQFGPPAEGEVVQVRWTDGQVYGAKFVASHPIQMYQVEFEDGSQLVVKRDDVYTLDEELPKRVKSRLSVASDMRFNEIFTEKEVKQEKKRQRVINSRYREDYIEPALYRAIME

[2] = molecular target: T2, Lysine-specific demethylase 4B (Homo sapiens, UniProt O94953); assay: Inhibition of human KDM4B (1 to 347 residues) catalytic domain measured formaldehyde dehydrogenase (FDH)-coupled fluorescence assay
T2 sequence (O94953 whole entry): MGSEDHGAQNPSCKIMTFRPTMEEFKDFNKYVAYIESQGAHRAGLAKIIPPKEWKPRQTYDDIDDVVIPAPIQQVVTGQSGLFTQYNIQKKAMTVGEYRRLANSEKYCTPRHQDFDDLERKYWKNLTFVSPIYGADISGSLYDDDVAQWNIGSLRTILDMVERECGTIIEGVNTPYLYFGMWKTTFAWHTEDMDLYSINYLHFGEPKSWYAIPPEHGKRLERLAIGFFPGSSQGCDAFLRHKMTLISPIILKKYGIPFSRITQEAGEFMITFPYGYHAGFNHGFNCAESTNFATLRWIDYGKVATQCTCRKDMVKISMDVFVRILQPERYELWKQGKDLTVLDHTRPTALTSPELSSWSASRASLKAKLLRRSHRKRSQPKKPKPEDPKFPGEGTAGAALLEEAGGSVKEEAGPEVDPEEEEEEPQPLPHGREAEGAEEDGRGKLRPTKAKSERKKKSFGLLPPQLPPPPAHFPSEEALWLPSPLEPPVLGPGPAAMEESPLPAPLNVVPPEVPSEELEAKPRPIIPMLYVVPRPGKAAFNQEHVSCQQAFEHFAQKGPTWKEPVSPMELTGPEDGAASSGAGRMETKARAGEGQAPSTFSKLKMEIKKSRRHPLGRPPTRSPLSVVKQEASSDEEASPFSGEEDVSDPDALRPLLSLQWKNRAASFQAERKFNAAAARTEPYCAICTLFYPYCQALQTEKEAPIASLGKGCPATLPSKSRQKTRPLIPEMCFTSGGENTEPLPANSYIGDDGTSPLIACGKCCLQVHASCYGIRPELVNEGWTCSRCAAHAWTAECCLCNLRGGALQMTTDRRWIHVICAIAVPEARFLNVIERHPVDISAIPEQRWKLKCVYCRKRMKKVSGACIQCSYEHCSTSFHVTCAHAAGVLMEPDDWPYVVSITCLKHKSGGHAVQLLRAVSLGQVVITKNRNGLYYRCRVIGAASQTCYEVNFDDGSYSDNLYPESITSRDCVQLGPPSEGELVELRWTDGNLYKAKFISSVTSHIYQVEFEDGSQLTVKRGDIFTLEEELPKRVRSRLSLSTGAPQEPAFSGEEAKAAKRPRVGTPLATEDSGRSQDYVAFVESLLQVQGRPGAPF

[3] = molecular target: T3, Lysine-specific demethylase 4E (Homo sapiens, UniProt B2RXH2); assay: Inhibition of human KDM4E (1 to 378 residues) catalytic domain measured formaldehyde dehydrogenase (FDH)-coupled fluorescence assay
T3 sequence (B2RXH2 whole entry): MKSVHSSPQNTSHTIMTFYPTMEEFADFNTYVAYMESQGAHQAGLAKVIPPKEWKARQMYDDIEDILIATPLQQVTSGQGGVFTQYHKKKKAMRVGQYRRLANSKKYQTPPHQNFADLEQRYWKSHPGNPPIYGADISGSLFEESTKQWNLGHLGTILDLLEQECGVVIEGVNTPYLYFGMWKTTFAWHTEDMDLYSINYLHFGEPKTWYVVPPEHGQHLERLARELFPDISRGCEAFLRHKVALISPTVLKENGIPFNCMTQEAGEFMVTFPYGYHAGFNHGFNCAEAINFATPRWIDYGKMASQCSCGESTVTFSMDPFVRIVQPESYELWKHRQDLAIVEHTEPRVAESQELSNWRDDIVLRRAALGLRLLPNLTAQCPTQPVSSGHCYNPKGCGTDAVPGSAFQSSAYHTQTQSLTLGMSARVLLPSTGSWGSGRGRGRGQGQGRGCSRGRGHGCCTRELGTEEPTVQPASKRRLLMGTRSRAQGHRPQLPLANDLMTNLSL

Measured: IC50

COC(=O)Cc1cc(O)n(-c2nc3ccccc3[nH]2)n1
4 µM: all assays above

Source: ChEMBL document CHEMBL5137065, “Recent Advances with KDM4 Inhibitors and Potential Applications” (J Med Chem, 2022)
